Test results reported in patent US20230167088A1, “1-PYRAZINYLPYRAZOLYL-3-OXYALKYL ACIDS AND THEIR DERIVATIVES, AND THEIR USE FOR CONTROL OF UNDESIRED PLANT GROWTH” (BAYER AKTIENGESELLSCHAFT, priority 2020, published 2023).

Legend:
AMARE [1] = assay: Herbicidal pre-emergence action 2a (greenhouse pots, visual scoring); assay type: in vivo, Amaranthus retroflexus; details: dosage 320 g/ha, visual scoring after about 3 weeks vs untreated controls
From the text: (§1) [table] a) Seeds of monocotyledonous and dicotyledonous weed plants and crop plants are placed in plastic or organic plant pots and covered with soil. The compounds of the invention, formulated in the form of wettable powders (WP) or as emulsion concentrates (EC), are then applied onto the surface of the covering soil as aqueous suspension or emulsion with addition of 0.5% additive at a water application rate of 600 1/ha (converted). After the treatment, the pots are placed in a greenhouse and kept under good growth conditions for the trial plants. After about 3 weeks, the effect of the preparations is scored visually in comparison with untreated controls as percentages. For example, 100% activity=the plants have died, 0% activity=like control plants. Tables B1 to B15 below show the effects of selected compounds of the general formula (I) according to Tables 1 and 2 on various harmful plants and an application rate corresponding to 320 g/ha and/or 80 g/ha, which were obtained by the experimental procedure mentioned above.

VIOTR [2] = assay: as above; assay type: in vivo, Viola tricolor; details: dosage 320 g/ha, visual scoring after about 3 weeks vs untreated controls
From the text: as §1

MATIN [3] = assay: as above; assay type: in vivo, Matricaria inodora; details: dosage 320 g/ha, visual scoring after about 3 weeks vs untreated controls
From the text: as §1

ECHCG [4] = assay: as above; assay type: in vivo, Echinochloa crus-galli; details: dosage 320 g/ha, visual scoring after about 3 weeks
From the text: as §1

DIGSA [5] = assay: Herbicidal pre-emergence action 2b (doubly sown, 1280 g/ha); assay type: in vivo, Digitaria sanguinalis; details: doubly sown pots, dosage 1280 g/ha, visual scoring after about 3 weeks
From the text: (§2) [table] b) Seeds of mono- and dicotyledonous weed plants are placed in plastic pots in sandy loam soil (doubly sown with one species each of mono- or dicotyledonous weed plants per pot) and covered with soil. The compounds of the invention, formulated in the form of wettable powders (WP) or as emulsion concentrates (EC), are then applied onto the surface of the covering soil as aqueous suspension or emulsion with addition of 0.5% additive at a water application rate equivalent to 600 litres per hectare. After the treatment, the pots are placed in a greenhouse and kept under good growth conditions for the trial plants. After about 3 weeks, the effect of the preparations is scored visually in comparison with untreated controls as percentages. For example, 100% activity=the plants have died, 0% activity=like control plants. Tables B16 to B21 below show the effects of selected compounds of the general formula (I) according to Tables 1 and 2 on various harmful plants and at an application rate corresponding to 1280 g/ha, which were obtained by the experimental procedure mentioned above.

STEME [6] = assay: Herbicidal post-emergence action 1b (twin sowing, 1280 g/ha); assay type: in vivo, Stellaria media; details: dosage 1280 g/ha, visual rating about 3 weeks after treatment
Procedure: (§3) [table] b) Seeds of mono- and dicotyledonous weed plants are placed in plastic pots in sandy loam soil (twin sowing with one species each of mono- or dicotyledonous weed plants per pot), covered with soil and cultivated in a greenhouse under controlled growth conditions. 2 to 3 weeks after sowing, the test plants are treated at the one-leaf stage. The compounds of the invention, formulated in the form of wettable powders (WP) or as emulsion concentrates (EC), are applied to the green parts of the plants as aqueous suspension or emulsion with addition of 0.5% additive at a water application rate equivalent to 600 litres per hectare. After the test plants have been kept in the greenhouse under optimum growth conditions for about 3 weeks, the activity of the preparations is rated visually in comparison to untreated controls. For example, 100% activity=the plants have died, 0% activity=like control plants. Tables A16 to A21 below show the effects of selected compounds of the general formula (I) according to Tables 1 and 2 on various harmful plants and at an application rate corresponding to 1280 g/ha, which were obtained by the experimental procedure mentioned above.

POAAN [7] = assay: as above; assay type: in vivo, Poa annua; details: dosage 1280 g/ha, visual rating about 3 weeks after treatment
Procedure: as §3

MATIN [8] = assay: Herbicidal pre-emergence action 2b (doubly sown, 1280 g/ha); assay type: in vivo, Matricaria inodora; details: doubly sown pots, dosage 1280 g/ha, visual scoring after about 3 weeks
From the text: as §2

ECHCG [9] = assay: as above; assay type: in vivo, Echinochloa crus-galli; details: doubly sown pots, dosage 1280 g/ha, visual scoring after about 3 weeks
From the text: as §2

ALOMY [10] = assay: Herbicidal post-emergence action 1a (greenhouse pots, visual rating); assay type: in vivo, Alopecurus myosuroides; details: rated visually about 3 weeks after treatment, 100% = plants have died, 0% = like control plants
Procedure: (§4) [table] a) Seeds of monocotyledonous and dicotyledonous weeds and crop plants are placed in sandy loam in plastic or organic plant pots, covered with soil and cultivated in a greenhouse under controlled growth conditions. 2 to 3 weeks after sowing, the test plants are treated at the one-leaf stage. The compounds of the invention, formulated in the form of wettable powders (WP) or as emulsion concentrates (EC), are then sprayed onto the green parts of the plants as aqueous suspension or emulsion with addition of 0.5% additive at a water application rate of 600 1/ha (converted). After the test plants have been kept in the greenhouse under optimum growth conditions for about 3 weeks, the activity of the preparations is rated visually in comparison to untreated controls. For example, 100% activity=the plants have died, 0% activity=like control plants. Tables A1 to A15 below show the effects of selected compounds of the general formula (I) according to Tables 1 and 2 on various harmful plants and an application rate corresponding to 320 g/ha and/or 80 g/ha, which were obtained by the experimental procedure mentioned above.

VERPE [11] = assay: Herbicidal pre-emergence action 2a (greenhouse pots, visual scoring); assay type: in vivo, Veronica persica; details: dosage 320 g/ha, visual scoring after about 3 weeks vs untreated controls
From the text: as §1

VIOTR [12] = assay: Herbicidal post-emergence action 1a (greenhouse pots, visual rating); assay type: in vivo, Viola tricolor; details: visual rating about 3 weeks after treatment
Procedure: as §4

AMARE [13] = assay: Herbicidal pre-emergence action 2b (doubly sown, 1280 g/ha); assay type: in vivo, Amaranthus retroflexus; details: doubly sown pots, dosage 1280 g/ha, visual scoring after about 3 weeks
From the text: as §2

AMARE [14] = assay: Herbicidal post-emergence action 1a (greenhouse pots, visual rating); assay type: in vivo, Amaranthus retroflexus; details: visual rating about 3 weeks after treatment
Procedure: as §4

ALOMY [15] = assay: Herbicidal pre-emergence action 2a (greenhouse pots, visual scoring); assay type: in vivo, Alopecurus myosuroides; details: dosage 320 g/ha, visual scoring after about 3 weeks
From the text: as §1

POAAN [16] = assay: Herbicidal pre-emergence action 2b (doubly sown, 1280 g/ha); assay type: in vivo, Poa annua; details: doubly sown pots, dosage 1280 g/ha, visual scoring after about 3 weeks
From the text: as §2

POLCO [17] = assay: Herbicidal pre-emergence action 2a (greenhouse pots, visual scoring); assay type: in vivo, Polygonum convolvulus; details: dosage 320 g/ha, visual scoring after about 3 weeks vs untreated controls
From the text: as §1

ABUTH = assay: Herbicidal post-emergence action 1a (greenhouse pots, visual rating); assay type: in vivo, Abutilon theophrasti; details: visual rating about 3 weeks after treatment
Procedure: as §4

LOLRI [18] = assay: Herbicidal pre-emergence action 2a (greenhouse pots, visual scoring); assay type: in vivo, Lolium rigidum; details: dosage 320 g/ha, visual scoring after about 3 weeks vs untreated controls
From the text: as §1

ECHCG [19] = assay: Herbicidal post-emergence action 1a (greenhouse pots, visual rating); assay type: in vivo, Echinochloa crus-galli; details: Dosage 320 g/ha; rated visually about 3 weeks after treatment; 100% = plants have died, 0% = like control plants
Procedure: as §4

LOLRI [20] = assay: as above; assay type: in vivo, Lolium rigidum; details: Dosage 320 g/ha; rated visually about 3 weeks after treatment; 100% = plants have died, 0% = like control plants
Procedure: as §4

VERPE [21] = assay: as above; assay type: in vivo, Veronica persica; details: visual rating about 3 weeks after treatment
Procedure: as §4

SETVI [22] = assay: as above; assay type: in vivo, Setaria viridis; details: rated visually about 3 weeks after treatment, 100% = plants have died, 0% = like control plants
Procedure: as §4

AVEFA [23] = assay: Herbicidal pre-emergence action 2a (greenhouse pots, visual scoring); assay type: in vivo, Avena fatua; details: dosage 320 g/ha, visual scoring after about 3 weeks
From the text: as §1

SETVI [24] = assay: as above; assay type: in vivo, Setaria viridis; details: dosage 320 g/ha, visual scoring after about 3 weeks vs untreated controls
From the text: as §1

POLCO [25] = assay: Herbicidal post-emergence action 1a (greenhouse pots, visual rating); assay type: in vivo, Polygonum convolvulus; details: visual rating about 3 weeks after treatment
Procedure: as §4

AVEFA [26] = assay: as above; assay type: in vivo, Avena fatua; details: Dosage 320 g/ha; rated visually about 3 weeks after treatment; 100% = plants have died, 0% = like control plants
Procedure: as §4

MATIN [27] = assay: Herbicidal post-emergence action 1b (twin sowing, 1280 g/ha); assay type: in vivo, Matricaria inodora; details: dosage 1280 g/ha, visual rating about 3 weeks after treatment
Procedure: as §3

STEME [28] = assay: Herbicidal pre-emergence action 2b (doubly sown, 1280 g/ha); assay type: in vivo, Stellaria media; details: doubly sown pots, dosage 1280 g/ha, visual scoring after about 3 weeks
From the text: as §2

DIGSA [29] = assay: Herbicidal pre-emergence action 2a (greenhouse pots, visual scoring); assay type: in vivo, Digitaria sanguinalis; details: dosage 320 g/ha, visual scoring after about 3 weeks
From the text: as §1

PHBPU = assay: Herbicidal post-emergence action 1a (greenhouse pots, visual rating); assay type: in vivo, Pharbitis purpurea; details: dosage 320 g/ha, visual rating about 3 weeks after treatment
Procedure: as §4

SMILES	Pre-emergence action against AMARE in % (AMARE [1])	Pre-emergence action against VIOTR in % (VIOTR [2])	Pre-emergence action against MATIN in % (MATIN [3])	Pre-emergence action against ECHCG in % (ECHCG [4])	Post-emergence action at 1280 g/ha against STEME in % (STEME [6])	Post-emergence action at 1280 g/ha against POAAN in % (POAAN [7])	Pre-emergence action at 1280 g/ha against MATIN in % (MATIN [8])	Pre-emergence action at 1280 g/ha against ECHCG in % (ECHCG [9])	Post-emergence action against ALOMY in % (ALOMY [10]; Dosage 320 g/ha)	Pre-emergence action against VERPE in % (VERPE [11])	Post-emergence action against VIOTR in % (VIOTR [12]; dosage 320 g/ha)	Pre-emergence action at 1280 g/ha against AMARE in % (AMARE [13])	Post-emergence action against AMARE in % (AMARE [14]; dosage 320 g/ha)	Pre-emergence action against ALOMY in % (ALOMY [15])	Pre-emergence action at 1280 g/ha against POAAN in % (POAAN [16])	Pre-emergence action against POLCO in % (POLCO [17])	Pre-emergence action against LOLRI in % (LOLRI [18])	Post-emergence action against LOLRI in % (LOLRI [20])	Post-emergence action against VERPE in % (VERPE [21]; dosage 320 g/ha)	Pre-emergence action against AVEFA in % (AVEFA [23])	also measured
COC(=O)COc1nn(-c2nccnc2F)c(-c2ccc(F)nc2)c1Br [Example I-77]	80%	80%	80%	–	–	–	–	–	–	–	–	–	–	–	–	–	–	–	–	–	–
C[C@@H](Oc1nn(-c2cnccn2)c(-c2cncc(F)c2)c1Cl)C(=O)O [Example 1-97]	–	–	–	100%	–	–	–	–	–	–	–	–	–	–	–	–	–	–	–	–	–
COC(=O)[C@@H](C)Oc1nn(-c2cnccn2)c(-c2ccc(F)nc2)c1C#N [Example I-25]	–	90%	–	–	90%	90%	90%	90%	80%	90%	90%	100%	80%	80%	100%	–	–	–	–	–	Pre-emergence action at 1280 g/ha against DIGSA in % (DIGSA [5]): 100%
CCOC(=O)COc1nn(-c2cnccn2)c(-c2cncc(F)c2)c1Br [Example I-90]	100%	–	100%	100%	–	–	–	–	100%	100%	–	–	90%	90%	–	100%	100%	80%	90%	100%	Post-emergence action against ALOMY in % (ALOMY [10]; Dosage 80 g/ha): 80%; Post-emergence action against ABUTH in % (ABUTH; dosage 80 g/ha): 90%; Post-emergence action against ABUTH in % (ABUTH; dosage 320 g/ha): 90%; Post-emergence action against ECHCG in % (ECHCG [19]): 90%; Post-emergence action against VERPE in % (VERPE [21]; dosage 80 g/ha): 90%; Post-emergence action against SETVI in % (SETVI [22]; Dosage 80 g/ha): 80%; Post-emergence action against SETVI in % (SETVI [22]; Dosage 320 g/ha): 90%; Pre-emergence action against SETVI in % (SETVI [24]): 100%; Post-emergence action against POLCO in % (POLCO [25]; dosage 80 g/ha): 80%; Post-emergence action against POLCO in % (POLCO [25]; dosage 320 g/ha): 80%; Post-emergence action against AVEFA in % (AVEFA [26]): 100%
C[C@@H](Oc1nn(-c2nccnc2Cl)c(-c2ccc(F)nc2)c1Br)C(=O)O [Example I-75]	90%	80%	–	–	–	–	–	–	–	–	–	–	–	100%	–	80%	100%	–	–	90%	–
COC(=O)[C@H](C)Oc1nn(-c2cnccn2)c(-c2cccc(F)c2)c1Br [Example I-21]	100%	100%	80%	–	100%	100%	100%	100%	90%	90%	90%	100%	90%	80%	100%	–	90%	90%	80%	–	Post-emergence action at 1280 g/ha against MATIN in % (MATIN [27]): 90%; Pre-emergence action at 1280 g/ha against STEME in % (STEME [28]): 100%; Pre-emergence action against SETVI in % (SETVI [24]): 90%; Post-emergence action against VIOTR in % (VIOTR [12]; dosage 80 g/ha): 80%; Pre-emergence action against DIGSA in % (DIGSA [29]): 90%; Post-emergence action against AVEFA in % (AVEFA [26]): 80%; Post-emergence action against PHBPU in % (PHBPU): 80%; Post-emergence action against AMARE in % (AMARE [14]; dosage 80 g/ha): 80%
